Data reported in ChEMBL document CHEMBL3763139, “Design, synthesis and biological evaluation of novel donepezil-coumarin hybrids as multi-target agents for the treatment of Alzheimer's disease” (Bioorg Med Chem, 2016).
pIC50: −log10 of the molar value. Calls of active or inactive are those of the source. No cut-off for these calls is given here.

Columns and labels:
[1] = target: Cholinesterase (Equus caballus, UniProt P81908)
Description: Inhibition of equine serum BuChE using S-butyrylthiocholine iodide as substrate preincubated for 6 mins followed by substrate addition measured up to 180 secs by spectrophotometric-based Ellman's method

[2] = species on record: Homo sapiens; test: Selectivity index, ratio of IC50 for human recombinant MAO-A to IC50 for human recombinant MAO-B
[3] = target: Acetylcholinesterase (Electrophorus electricus, UniProt O42275)
Chain of Acetylcholinesterase (Electrophorus electricus, UniProt O42275) (O42275 whole entry): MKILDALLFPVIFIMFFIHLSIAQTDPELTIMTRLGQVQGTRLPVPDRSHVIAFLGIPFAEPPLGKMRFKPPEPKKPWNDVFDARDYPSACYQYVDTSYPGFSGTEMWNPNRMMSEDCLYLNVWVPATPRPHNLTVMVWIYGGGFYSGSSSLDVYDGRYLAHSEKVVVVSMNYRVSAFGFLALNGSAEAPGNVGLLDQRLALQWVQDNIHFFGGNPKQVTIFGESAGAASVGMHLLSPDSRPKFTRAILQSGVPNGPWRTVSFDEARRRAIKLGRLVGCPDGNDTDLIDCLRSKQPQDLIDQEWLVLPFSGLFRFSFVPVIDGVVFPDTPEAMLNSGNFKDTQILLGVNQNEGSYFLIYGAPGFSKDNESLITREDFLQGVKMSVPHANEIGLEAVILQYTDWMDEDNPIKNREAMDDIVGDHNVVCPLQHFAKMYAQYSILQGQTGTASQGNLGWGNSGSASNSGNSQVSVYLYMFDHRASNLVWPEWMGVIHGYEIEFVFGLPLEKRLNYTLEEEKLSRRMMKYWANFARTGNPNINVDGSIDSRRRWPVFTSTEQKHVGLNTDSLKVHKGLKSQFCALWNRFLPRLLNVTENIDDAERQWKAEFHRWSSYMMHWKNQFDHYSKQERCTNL
Description: Inhibition of electric eel AChE using acetylthiocholine iodide as substrate preincubated for 6 mins followed by substrate addition measured up to 180 secs by spectrophotometric-based Ellman's method

[4] = target: T1, Amine oxidase [flavin-containing] B (Homo sapiens, UniProt P27338)
T1 sequence (P27338 whole entry): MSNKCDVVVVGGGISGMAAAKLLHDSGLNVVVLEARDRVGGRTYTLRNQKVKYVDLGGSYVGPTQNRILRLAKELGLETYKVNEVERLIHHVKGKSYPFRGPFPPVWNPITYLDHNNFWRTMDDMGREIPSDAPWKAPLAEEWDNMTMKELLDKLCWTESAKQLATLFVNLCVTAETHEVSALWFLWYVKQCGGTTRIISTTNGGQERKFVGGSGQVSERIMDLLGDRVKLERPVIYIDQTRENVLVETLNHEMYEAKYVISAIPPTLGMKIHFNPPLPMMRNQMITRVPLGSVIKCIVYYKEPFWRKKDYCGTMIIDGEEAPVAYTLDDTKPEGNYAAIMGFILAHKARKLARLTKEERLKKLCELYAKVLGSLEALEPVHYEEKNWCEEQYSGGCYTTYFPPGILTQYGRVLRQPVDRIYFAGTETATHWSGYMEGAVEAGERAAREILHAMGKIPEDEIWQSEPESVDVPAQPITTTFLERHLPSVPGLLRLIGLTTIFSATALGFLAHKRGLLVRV
Description: Inhibition of human recombinant MAO-B using p-tyramine substrate after 15 mins by fluorimetric analysis

[5] = target: T2, Amine oxidase [flavin-containing] A (Homo sapiens, UniProt P21397); test: Inhibition of human recombinant MAO-A using p-tyramine substrate at 100 uM after 15 mins by fluorimetric analysis; conditions: 0.25 h
T2 sequence (P21397 whole entry): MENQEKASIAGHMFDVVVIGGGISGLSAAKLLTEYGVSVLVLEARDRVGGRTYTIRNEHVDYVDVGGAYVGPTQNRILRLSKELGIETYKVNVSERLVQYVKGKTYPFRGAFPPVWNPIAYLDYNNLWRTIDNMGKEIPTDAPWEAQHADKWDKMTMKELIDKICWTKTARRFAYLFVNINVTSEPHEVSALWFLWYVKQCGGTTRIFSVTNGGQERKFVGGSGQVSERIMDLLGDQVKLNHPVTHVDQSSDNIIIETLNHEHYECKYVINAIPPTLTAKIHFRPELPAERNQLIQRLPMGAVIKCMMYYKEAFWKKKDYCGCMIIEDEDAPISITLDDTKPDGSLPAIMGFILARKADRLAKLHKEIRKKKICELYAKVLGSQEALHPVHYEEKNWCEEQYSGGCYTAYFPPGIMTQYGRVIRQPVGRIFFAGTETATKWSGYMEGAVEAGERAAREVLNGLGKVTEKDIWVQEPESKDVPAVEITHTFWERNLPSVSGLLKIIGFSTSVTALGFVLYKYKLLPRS

[6] = target: Acetylcholinesterase (Homo sapiens, UniProt P22303)
Chain of Acetylcholinesterase (Homo sapiens, UniProt P22303) (P22303 whole entry): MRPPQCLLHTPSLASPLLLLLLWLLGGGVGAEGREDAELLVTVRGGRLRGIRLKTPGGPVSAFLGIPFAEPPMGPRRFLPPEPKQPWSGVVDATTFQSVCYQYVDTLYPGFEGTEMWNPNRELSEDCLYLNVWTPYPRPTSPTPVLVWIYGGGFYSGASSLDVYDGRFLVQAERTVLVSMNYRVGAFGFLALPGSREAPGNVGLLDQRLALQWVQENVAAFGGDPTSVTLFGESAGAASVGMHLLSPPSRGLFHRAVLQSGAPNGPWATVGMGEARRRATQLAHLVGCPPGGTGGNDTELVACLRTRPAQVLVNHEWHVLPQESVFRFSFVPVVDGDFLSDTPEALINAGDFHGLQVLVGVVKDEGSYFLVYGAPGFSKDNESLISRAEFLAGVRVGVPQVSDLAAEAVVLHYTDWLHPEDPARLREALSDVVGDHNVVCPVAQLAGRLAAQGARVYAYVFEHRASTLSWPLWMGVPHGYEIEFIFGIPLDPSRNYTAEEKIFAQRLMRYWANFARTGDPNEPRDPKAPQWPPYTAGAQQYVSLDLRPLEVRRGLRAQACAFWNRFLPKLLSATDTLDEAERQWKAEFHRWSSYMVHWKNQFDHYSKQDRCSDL
Description: Inhibition of human erythrocyte AChE using acetylthiocholine iodide as substrate preincubated for 6 mins followed by substrate addition measured up to 180 secs by spectrophotometric-based Ellman's method

[7] = target: Cholinesterase (Homo sapiens, UniProt P06276)
Chain of Cholinesterase (Homo sapiens, UniProt P06276) (P06276 whole entry): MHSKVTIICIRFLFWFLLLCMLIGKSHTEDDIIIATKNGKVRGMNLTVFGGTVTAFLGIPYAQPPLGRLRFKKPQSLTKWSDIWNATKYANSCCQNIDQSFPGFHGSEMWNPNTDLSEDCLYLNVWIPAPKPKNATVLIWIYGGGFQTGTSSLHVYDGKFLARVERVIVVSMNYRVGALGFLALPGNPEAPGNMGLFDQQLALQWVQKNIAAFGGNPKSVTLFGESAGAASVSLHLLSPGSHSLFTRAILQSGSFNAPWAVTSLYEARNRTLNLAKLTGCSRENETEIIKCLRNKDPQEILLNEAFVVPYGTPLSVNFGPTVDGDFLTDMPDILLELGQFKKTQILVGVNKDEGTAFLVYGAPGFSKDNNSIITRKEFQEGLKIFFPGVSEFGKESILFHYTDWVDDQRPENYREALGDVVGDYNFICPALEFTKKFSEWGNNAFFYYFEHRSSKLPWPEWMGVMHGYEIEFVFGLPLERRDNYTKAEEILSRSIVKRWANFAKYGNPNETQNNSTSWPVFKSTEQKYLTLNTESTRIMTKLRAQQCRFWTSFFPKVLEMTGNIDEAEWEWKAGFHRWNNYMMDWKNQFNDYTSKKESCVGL
Description: Inhibition of human serum BuChE using S-butyrylthiocholine iodide as substrate preincubated for 6 mins followed by substrate addition measured up to 180 secs by spectrophotometric-based Ellman's method

[8] = Hepatotoxicity against human HepG2 cells assessed as cell viability at 25 uM after 24 hrs by MTT assay; format: toxicity, cell-based; conditions: read-out: Activity
[9] = Cytotoxicity against human SH-SY5Y cells assessed as cell viability at 25 uM after 24 hrs by MTT assay; format: cell-based; conditions: read-out: Activity
[10] = Cytotoxicity against human SH-SY5Y cells assessed as cell viability at 5 uM after 24 hrs by MTT assay; format: cell-based; conditions: read-out: Activity
[11] = in vitro; conditions: PAMPA, pH 7.4
Description: Permeability of the compound at 25 ug/ml at pH 7.4 after 16 hrs by PAMPA

[12] = Hepatotoxicity against human HepG2 cells assessed as cell viability at 6.25 uM after 24 hrs by MTT assay; format: toxicity, cell-based; conditions: read-out: Activity
[13] = Hepatotoxicity against human HepG2 cells assessed as cell viability at 12.5 uM after 24 hrs by MTT assay; format: toxicity, cell-based; conditions: read-out: Activity
[14] = Cytotoxicity against human SH-SY5Y cells assessed as cell viability at 50 uM after 24 hrs by MTT assay; format: cell-based; conditions: read-out: Activity
[15] = target: Cholinesterase (Equus caballus) (UniProt P81908); conditions: 0.44 to 1.74 uM
Chain of Cholinesterase (Equus caballus) (P81908 whole entry): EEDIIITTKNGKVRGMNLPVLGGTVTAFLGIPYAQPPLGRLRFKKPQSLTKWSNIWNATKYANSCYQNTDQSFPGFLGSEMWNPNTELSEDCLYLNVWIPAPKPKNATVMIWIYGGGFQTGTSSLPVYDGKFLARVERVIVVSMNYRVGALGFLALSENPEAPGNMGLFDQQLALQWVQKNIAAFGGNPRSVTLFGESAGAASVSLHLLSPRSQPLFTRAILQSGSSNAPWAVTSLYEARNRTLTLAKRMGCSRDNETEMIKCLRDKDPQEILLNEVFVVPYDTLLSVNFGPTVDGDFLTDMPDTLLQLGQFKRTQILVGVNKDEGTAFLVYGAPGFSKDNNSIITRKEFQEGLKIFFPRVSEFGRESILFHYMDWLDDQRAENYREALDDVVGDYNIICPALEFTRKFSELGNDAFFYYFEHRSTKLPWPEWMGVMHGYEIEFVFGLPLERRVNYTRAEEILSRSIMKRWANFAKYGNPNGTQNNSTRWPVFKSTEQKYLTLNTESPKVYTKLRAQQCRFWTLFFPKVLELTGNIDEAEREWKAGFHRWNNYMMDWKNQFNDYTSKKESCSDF

[16] = target: Acetylcholinesterase (Electrophorus electricus) (UniProt O42275); test: Mixed type inhibition of electric eel AChE using acetylthiocholine iodide as substrate at 0.44 to 1.74 uM preincubated for 6 mins followed by substrate addition measured up to 180 secs by Lineweaver-Burk reciprocal plot analysis
Chain of Acetylcholinesterase (Electrophorus electricus) (O42275 24-633 limits assumed): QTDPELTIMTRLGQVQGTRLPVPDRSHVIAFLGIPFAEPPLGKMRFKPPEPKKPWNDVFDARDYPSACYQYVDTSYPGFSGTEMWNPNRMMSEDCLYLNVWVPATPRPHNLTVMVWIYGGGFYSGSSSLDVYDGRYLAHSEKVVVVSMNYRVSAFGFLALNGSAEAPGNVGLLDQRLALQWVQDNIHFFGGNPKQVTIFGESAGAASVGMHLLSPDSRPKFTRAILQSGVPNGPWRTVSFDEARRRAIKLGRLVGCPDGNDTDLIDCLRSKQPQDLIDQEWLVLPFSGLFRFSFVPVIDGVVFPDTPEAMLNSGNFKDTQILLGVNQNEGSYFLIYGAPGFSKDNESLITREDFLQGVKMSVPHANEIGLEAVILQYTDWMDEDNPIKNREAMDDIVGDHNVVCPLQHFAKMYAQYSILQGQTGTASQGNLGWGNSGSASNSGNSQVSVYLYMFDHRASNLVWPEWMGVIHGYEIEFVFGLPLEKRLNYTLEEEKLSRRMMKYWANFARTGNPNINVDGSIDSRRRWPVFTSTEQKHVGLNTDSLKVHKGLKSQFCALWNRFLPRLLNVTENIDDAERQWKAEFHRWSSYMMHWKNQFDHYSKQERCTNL

[17] = Hepatotoxicity against human HepG2 cells assessed as cell viability at 50 uM after 24 hrs by MTT assay; format: toxicity, cell-based; conditions: read-out: Activity
[18] = target: T1, Amine oxidase [flavin-containing] B; test: Reversible inhibition of human recombinant MAO-B assessed as enzyme recovery using p-tyramine substrate at 100 times IC50 preincubated for 30 mins followed by 100 fold dilution by fluorimetric analysis relative to control; set-up: scale not given: the % may be the effect or the level left
[19] = target: T1, Amine oxidase [flavin-containing] B; test: Competitive inhibition of human recombinant MAO-B using p-tyramine substrate at 1.5 to 6 uM after 15 mins by Lineweaver-Burk reciprocal plot analysis; conditions: 0.25 h
[20] = Cytotoxicity against human SH-SY5Y cells assessed as cell viability at 1 uM after 24 hrs by MTT assay; format: cell-based; conditions: read-out: Activity
[21] = Cytotoxicity against human SH-SY5Y cells assessed as cell viability at 10 uM after 24 hrs by MTT assay; format: cell-based; conditions: read-out: Activity

Chain of Cholinesterase (Equus caballus, UniProt P81908) (P81908 whole entry): as the sequence (P81908 whole entry) above

What does the source list for `Cc1c(Cl)c(=O)oc2cc(OCCNC3CCN(Cc4ccccc4)CC3)ccc12`?
pIC50 [1]: 5.85; Ratio IC50 [2]: > 6.8; pIC50 [3]: 5.80; pIC50 [4]: 4.83; inhibition (INH) [5]: Not Active; pIC50 [6]: 5.74; pIC50 [7]: 5.77

With `O=c1ccc2ccc(OCCNC3CCN(Cc4ccccc4)CC3)cc2o1` as the compound, how does the pIC50 [1] read?
Its pIC50 is 5.27.

What about the Ratio IC50 [2] of the same compound?
Its Ratio IC50 is > 11.9.

What about the pIC50 [3] of the same compound?
The pIC50 was 5.35.

What about the pIC50 [4] of the same compound?
The pIC50 was 5.08.

And the “inhibition (INH)” value [5]?
The value was “Not Active”.

With `O=c1ccc2ccc(OCCCNC3CCN(Cc4ccccc4)CC3)cc2o1` as the compound, how does the pIC50 [1] read?
The pIC50 was 5.01.

And the Ratio IC50 [2]?
The Ratio IC50 was > 7.94.

And the pIC50 [3]?
The pIC50 was 4.93.

What about the pIC50 [4] of the same compound?
The pIC50 was 4.90.

And the “inhibition (INH)” value [5]?
The value was “Not Active”.

What does the source list for `O=c1oc2cc(OCCNC3CCN(Cc4ccccc4)CC3)ccc2c2c1CCCC2`?
pIC50 [1]: 6.03; Ratio IC50 [2]: > 38.2; viability at 24 h, 25 µM [8]: 105%; viability at 24 h, 25 µM [9]: 94.6%; viability at 24 h, 5 µM [10]: 102%; pIC50 [3]: 6.06; pIC50 [4]: 5.58; Papp at 16 h, 25 ug/ml [11]: 16.2 ×10⁻⁶ cm/s; viability at 24 h, 6.25 µM [12]: 101%; inhibition (INH) [5]: Not Active; viability at 24 h, 12.5 µM [13]: 101%; viability at 24 h, 50 µM [14]: 92.6%; inhibition [15]: Active; inhibition [16]: Active; pIC50 [6]: 5.86; viability at 24 h, 50 µM [17]: 104%; Activity [18]: 47%; inhibition (INH) [19]: Active; viability at 24 h, 1 µM [20]: 99.6%; pIC50 [7]: 5.70; viability at 24 h, 10 µM [21]: 97.5%

With `Cc1cc(=O)oc2cc(CNCCC3CCN(Cc4ccccc4)CC3)ccc12` as the compound, how does the pIC50 [1] read?
Its pIC50 is 6.02.

And the Ratio IC50 [2]?
Its Ratio IC50 is > 2.47.

What about the pIC50 [3] of the same compound?
Its pIC50 is 6.04.

What about the pIC50 [4] of the same compound?
Its pIC50 is 4.39.

What about the “inhibition (INH)” value [5] of the same compound?
Its value is “Not Active”.

And the pIC50 [6]?
Its pIC50 is 7.17.

What about the pIC50 [7] of the same compound?
Its pIC50 is 5.46.

Which results are given for `O=c1cc(C(F)(F)F)c2ccc(OCCNC3CCN(Cc4ccccc4)CC3)cc2o1`?
pIC50 [1]: 4.99; Ratio IC50 [2]: > 3.51; pIC50 [3]: 5.04; pIC50 [4]: 4.55; inhibition (INH) [5]: Not Active

With `CCOc1cc(=O)oc2cc(OCCNC3CCN(Cc4ccccc4)CC3)ccc12` as the compound, how does the pIC50 [1] read?
Its pIC50 is 5.16.

What about the Ratio IC50 [2] of the same compound?
Its Ratio IC50 is > 3.13.

What about the pIC50 [3] of the same compound?
Its pIC50 is 5.20.

What about the pIC50 [4] of the same compound?
The pIC50 was 4.50.

What about the “inhibition (INH)” value [5] of the same compound?
Its value is “Not Active”.

With `O=c1ccc2ccc(OCCNCCC3CCN(Cc4ccccc4)CC3)cc2o1` as the compound, how does the pIC50 [1] read?
The pIC50 was 5.01.

And the Ratio IC50 [2]?
The Ratio IC50 was > 3.29.

What about the pIC50 [3] of the same compound?
Its pIC50 is 5.05.

And the pIC50 [4]?
The pIC50 was 4.52.

What about the “inhibition (INH)” value [5] of the same compound?
Its value is “Not Active”.

With `O=c1cc(-c2ccccc2)c2ccc(OCCNC3CCN(Cc4ccccc4)CC3)cc2o1` as the compound, how does the pIC50 [1] read?
Its pIC50 is 5.05.

What about the Ratio IC50 [2] of the same compound?
The Ratio IC50 was > 2.19.

And the pIC50 [3]?
Its pIC50 is 5.02.

And the pIC50 [4]?
Its pIC50 is 4.34.

What about the “inhibition (INH)” value [5] of the same compound?
Its value is “Not Active”.

With `Cc1cc(=O)oc2cc(CNC3CCN(Cc4ccccc4)CC3)ccc12` as the compound, how does the pIC50 [1] read?
Its pIC50 is 4.97.

And the Ratio IC50 [2]?
Its Ratio IC50 is > 51.8.

What about the pIC50 [3] of the same compound?
The pIC50 was 5.14.

And the pIC50 [4]?
Its pIC50 is 5.71.

And the “inhibition (INH)” value [5]?
Its value is “Not Active”.

What does the source list for `Cc1cc2ccc(OCCNC3CCN(Cc4ccccc4)CC3)cc2oc1=O`?
pIC50 [1]: 5.12; Ratio IC50 [2]: > 42; pIC50 [3]: 5.22; pIC50 [4]: 5.62; inhibition (INH) [5]: Not Active

What does the source list for `O=c1cc(Cl)c2ccc(OCCNC3CCN(Cc4ccccc4)CC3)cc2o1`?
pIC50 [1]: 5.83; Ratio IC50 [2]: > 2.95; pIC50 [3]: 5.82; pIC50 [4]: 4.47; inhibition (INH) [5]: Not Active; pIC50 [6]: 5.69; pIC50 [7]: 5.53

With `Cc1c(C)c2ccc(OCCNC3CCN(Cc4ccccc4)CC3)cc2oc1=O` as the compound, how does the pIC50 [1] read?
Its pIC50 is 5.78.

And the Ratio IC50 [2]?
The Ratio IC50 was > 4.27.

What about the pIC50 [3] of the same compound?
The pIC50 was 5.83.

What about the pIC50 [4] of the same compound?
Its pIC50 is 4.63.

And the “inhibition (INH)” value [5]?
The value was “Not Active”.

What about the pIC50 [6] of the same compound?
The pIC50 was 5.77.

And the pIC50 [7]?
Its pIC50 is 5.57.

With `COc1cc(=O)oc2cc(OCCNC3CCN(Cc4ccccc4)CC3)ccc12` as the compound, how does the pIC50 [1] read?
Its pIC50 is 5.25.

What about the Ratio IC50 [2] of the same compound?
The Ratio IC50 was > 2.98.

What about the pIC50 [3] of the same compound?
The pIC50 was 5.20.

And the pIC50 [4]?
Its pIC50 is 4.47.

And the “inhibition (INH)” value [5]?
The value was “Not Active”.

Which results are given for `Cc1cc(=O)oc2cc(OCCNC3CCN(Cc4ccccc4)CC3)ccc12`?
pIC50 [1]: 5.36; Ratio IC50 [2]: > 36.4; pIC50 [3]: 5.25; pIC50 [4]: 5.56; inhibition (INH) [5]: Not Active
